# Assay results reported in patent US6114310A, “Efflux pump inhibitors” (priority 1998, dated 2000).
# Tested on: Pseudomonas aeruginosa PAM1001
# Assay: microbe, parasite or virus in culture
# Type: cell-based
# Protocol: The activity of efflux pump inhibitors (EPI) in combination with fluoroquinolones, such as levofloxacin, is assessed by the checkerboard assay (Antimicrobial Combinations. In Antibiotics in Laboratory Medicine, Ed. Victor Lorian, M. D., Fourth edition, 1996, pp 333-338) using broth microdilution method performed as recommended by the NCCLS (National Committee for Clinical Laboratory Standards (NCCLS). 1997. Methods for Dilution of Antimicrobial Susceptibility Tests for Bacteria That Grow Aerobically--Fourth Edition; Approved Standard. NCCLS Document M7-A4, Vol 17 No.2). The test organism used is Pseudomonas aeruginosa PAM1001.
# In this assay, multiple dilutions of two drugs, namely the EPI and levofloxacin, are being tested, alone and in combination, at concentrations equal to, above and below their respective minimal inhibitory concentrations (MICs).
# Stock solutions are further diluted, according to the needs of a particular assay, in Mueller Hinton Broth (MHB). Stock solution can be stored at -80° C. Quinolones are solubilized according to the instructions of the manufacturers, at a concentration of 1 mg/ml. They are then further diluted in MHB. Stock solution can be stored at -80° C.
# The checkerboard assay is performed in microtiter plates. Levofloxacin is diluted in the x axis, each column containing a single concentration of levofloxacin. The EPI is diluted in the y axis, each row containing an equal concentration of EPI. The result of these manipulations is that each well of the microtiter plate contains a unique combination of concentrations of the two agents. Each EPI are tested independently.
# The assay is performed in MHB with a final bacterial inoculum of 5×10^5 CFU/ml (from an early-log phase culture). Microtiter plates are incubated during 20 h at 35° C. and are read using a microtiterplate reader (Molecular Devices) at 650 nm as well as visual observation using a microtiterplate reading mirror.
# [1] = Table 1, EPI Conc. μg/ml (number not given; column between 10 and 40 μg/ml)
# [2] = Table 2, EPI Conc. μg/ml (number not given; column between 10 and 40 μg/ml)
# [3] = Table 3, EPI Conc. μg/ml (number not given; column between 10 and 40 μg/ml)
# [4] = Table 4, EPI Conc. μg/ml (number not given; column between 10 and 40 μg/ml)
Substance,"Levofloxacin MIC Against P. aeruginosa PAM1001 in Presence of Efflux Pump Inhibitor (EPI), Minimum Inhibitory Concentration (Table 1, EPI Conc. 0 μg/ml) [µg/mL]","Levofloxacin MIC Against P. aeruginosa PAM1001 in Presence of Efflux Pump Inhibitor (EPI), Minimum Inhibitory Concentration (Table 1, EPI Conc. 0.625 μg/ml) [µg/mL]","Levofloxacin MIC Against P. aeruginosa PAM1001 in Presence of Efflux Pump Inhibitor (EPI), Minimum Inhibitory Concentration (Table 1, EPI Conc. 5 μg/ml) [µg/mL]","Levofloxacin MIC Against P. aeruginosa PAM1001 in Presence of Efflux Pump Inhibitor (EPI), Minimum Inhibitory Concentration (Table 1, EPI Conc. 10 μg/ml) [µg/mL]","Levofloxacin MIC Against P. aeruginosa PAM1001 in Presence of Efflux Pump Inhibitor (EPI), Minimum Inhibitory Concentration (Table 1, EPI Conc. 40 μg/ml) [µg/mL]","Levofloxacin MIC Against P. aeruginosa PAM1001 in Presence of Efflux Pump Inhibitor (EPI), Minimum Inhibitory Concentration [1] [µg/mL]","Levofloxacin MIC Against P. aeruginosa PAM1001 in Presence of Efflux Pump Inhibitor (EPI), Minimum Inhibitory Concentration (Table 2, EPI Conc. 0 μg/ml) [µg/mL]","Levofloxacin MIC Against P. aeruginosa PAM1001 in Presence of Efflux Pump Inhibitor (EPI), Minimum Inhibitory Concentration (Table 2, EPI Conc. 0.625 μg/ml) [µg/mL]","Levofloxacin MIC Against P. aeruginosa PAM1001 in Presence of Efflux Pump Inhibitor (EPI), Minimum Inhibitory Concentration (Table 2, EPI Conc. 5 μg/ml) [µg/mL]","Levofloxacin MIC Against P. aeruginosa PAM1001 in Presence of Efflux Pump Inhibitor (EPI), Minimum Inhibitory Concentration (Table 2, EPI Conc. 10 μg/ml) [µg/mL]","Levofloxacin MIC Against P. aeruginosa PAM1001 in Presence of Efflux Pump Inhibitor (EPI), Minimum Inhibitory Concentration (Table 2, EPI Conc. 40 μg/ml) [µg/mL]","Levofloxacin MIC Against P. aeruginosa PAM1001 in Presence of Efflux Pump Inhibitor (EPI), Minimum Inhibitory Concentration [2] [µg/mL]","Levofloxacin MIC Against P. aeruginosa PAM1001 in Presence of Efflux Pump Inhibitor (EPI), Minimum Inhibitory Concentration (Table 3, EPI Conc. 0 μg/ml) [µg/mL]","Levofloxacin MIC Against P. aeruginosa PAM1001 in Presence of Efflux Pump Inhibitor (EPI), Minimum Inhibitory Concentration (Table 3, EPI Conc. 0.625 μg/ml) [µg/mL]","Levofloxacin MIC Against P. aeruginosa PAM1001 in Presence of Efflux Pump Inhibitor (EPI), Minimum Inhibitory Concentration (Table 3, EPI Conc. 5 μg/ml) [µg/mL]","Levofloxacin MIC Against P. aeruginosa PAM1001 in Presence of Efflux Pump Inhibitor (EPI), Minimum Inhibitory Concentration (Table 3, EPI Conc. 10 μg/ml) [µg/mL]","Levofloxacin MIC Against P. aeruginosa PAM1001 in Presence of Efflux Pump Inhibitor (EPI), Minimum Inhibitory Concentration [3] [µg/mL]","Levofloxacin MIC Against P. aeruginosa PAM1001 in Presence of Efflux Pump Inhibitor (EPI), Minimum Inhibitory Concentration (Table 4, EPI Conc. 0 μg/ml) [µg/mL]","Levofloxacin MIC Against P. aeruginosa PAM1001 in Presence of Efflux Pump Inhibitor (EPI), Minimum Inhibitory Concentration (Table 4, EPI Conc. 0.625 μg/ml) [µg/mL]","Levofloxacin MIC Against P. aeruginosa PAM1001 in Presence of Efflux Pump Inhibitor (EPI), Minimum Inhibitory Concentration (Table 4, EPI Conc. 5 μg/ml) [µg/mL]",further results
D-Ornithyl-D-phenylalanine quinoline-3-amide [Compound 7 (Table 2)],4,4,4,2,0.50,1,4,4,0.25,0.06,0.06,0.06,4,4,0.015,0.015,0.03,4,4,0.06,"Levofloxacin MIC Against P. aeruginosa PAM1001 in Presence of Efflux Pump Inhibitor (EPI), Minimum Inhibitory Concentration (Table 1, EPI Conc. […]): 4 µg/mL; Levofloxacin MIC Against P. aeruginosa PAM1001 in Presence of Efflux Pump Inhibitor (EPI), Minimum Inhibitory Concentration (Table 4, EPI Conc. 10 μg/ml): 0.03 µg/mL; Levofloxacin MIC Against P. aeruginosa PAM1001 in Presence of Efflux Pump Inhibitor (EPI), Minimum Inhibitory Concentration (Table 4, EPI Conc. 40 μg/ml): 0.03 µg/mL; Levofloxacin MIC Against P. aeruginosa PAM1001 in Presence of Efflux Pump Inhibitor (EPI), Minimum Inhibitory Concentration [4]: 0.03 µg/mL"
D-Lysyl-β-N-(Cyclopropylmethyl)alanine Quinoline-2-amide Trifluoroacetate [Example 29],4,4,1,0.125,0.125,0.125,4,4,0.125,0.06,0.06,0.06,4,4,2,0.25,0.03,4,4,0.06,"Levofloxacin MIC Against P. aeruginosa PAM1001 in Presence of Efflux Pump Inhibitor (EPI), Minimum Inhibitory Concentration (Table 3, EPI Conc. 40 μg/ml): 0.008 µg/mL; Levofloxacin MIC Against P. aeruginosa PAM1001 in Presence of Efflux Pump Inhibitor (EPI), Minimum Inhibitory Concentration (Table 3, EPI Conc. […]): 4 µg/mL; Levofloxacin MIC Against P. aeruginosa PAM1001 in Presence of Efflux Pump Inhibitor (EPI), Minimum Inhibitory Concentration (Table 4, EPI Conc. 10 μg/ml): 0.015 µg/mL; Levofloxacin MIC Against P. aeruginosa PAM1001 in Presence of Efflux Pump Inhibitor (EPI), Minimum Inhibitory Concentration (Table 4, EPI Conc. 40 μg/ml): 0.015 µg/mL; Levofloxacin MIC Against P. aeruginosa PAM1001 in Presence of Efflux Pump Inhibitor (EPI), Minimum Inhibitory Concentration [4]: 0.015 µg/mL"
D-Ornithyl-β-(N-phenylpropyl)alanine quinoline-3-amide [Compound 22 (Table 3)],4,4,2,1,0.06,0.50,4,4,2,1,0.06,0.125,4,4,1,0.50,0.25,4,4,1,"Levofloxacin MIC Against P. aeruginosa PAM1001 in Presence of Efflux Pump Inhibitor (EPI), Minimum Inhibitory Concentration (Table 1, EPI Conc. […]): 4 µg/mL; Levofloxacin MIC Against P. aeruginosa PAM1001 in Presence of Efflux Pump Inhibitor (EPI), Minimum Inhibitory Concentration (Table 2, EPI Conc. […]): 4 µg/mL; Levofloxacin MIC Against P. aeruginosa PAM1001 in Presence of Efflux Pump Inhibitor (EPI), Minimum Inhibitory Concentration (Table 3, EPI Conc. 40 μg/ml): 0.015 µg/mL; Levofloxacin MIC Against P. aeruginosa PAM1001 in Presence of Efflux Pump Inhibitor (EPI), Minimum Inhibitory Concentration (Table 4, EPI Conc. 10 μg/ml): 0.125 µg/mL; Levofloxacin MIC Against P. aeruginosa PAM1001 in Presence of Efflux Pump Inhibitor (EPI), Minimum Inhibitory Concentration (Table 4, EPI Conc. 40 μg/ml): 0.125 µg/mL; Levofloxacin MIC Against P. aeruginosa PAM1001 in Presence of Efflux Pump Inhibitor (EPI), Minimum Inhibitory Concentration [4]: 0.125 µg/mL"
